Legend:
Assay in all cases: Proliferation assay (cell counts, growth inhibition)
Assay type in all cases: cell-based, human
[1] = tested on: KPL-1; conditions: Luminal, ER Positive, HER-2 Normal, inhibition at 1 μM
[2] = tested on: BT-20; conditions: Basal, ER Negative, HER-2 Normal, inhibition at 1 μM
Excerpt: (§1) The cell lines MDA-MB-415, MDA-MB-134, HCC-1500, ZR-75-30, HCC-202, HCC-1419, HCC-38, HCC-70, HCC-1187, HCC-1806, HCC-1937, HCC-1954, MDA-MB-436, HCC-1569, Hs578t, HCC-1143, MDA-MB-175, BT-474, SK-BR-3, MDA-MB-361, UAC-893, UACC-812, UACC-732, T-47D, MDA-MB-453, MDA-MB-468, CAMA-1, MDA-MB-157, MCF-7, MDA-MB-435, ZR-75-1, BT-20, and MDA-MB-231 were obtained from American Type Culture Collection (Rockville, Md.). The cell lines EFM-192A, KPL-1, EFM-19 and CAL-51 were obtained from the German Tissue Repository DSMZ (Braunschweig Germany), and the cell lines SUM-190 and SUM-225 were obtained from the University of Michigan (Ann Arbor, Mich.). MDA-MB-134, MDA-MB415, MDA-MB-436, MDA-MB-175, UACC-893, UACC-812, and MDA-MB-157 cells were cultured in L15 medium supplemented with 10% heat-inactivated fetal bovine serum (FBS), […] glutamine and 1% penicillin G-streptomycin-fungizone solution (PSF, Irvine Scientific, Santa Ana, Calif.). CAL-51, KPL-1, Hs578t cells were grown in DMEM supplemented with 10% heat-inactivated FBS and PSF, as above. SUM-190 and SUM-225 cells were cultured in HAM's F12 supplemented with 5% heat-inactivated FBS, PSF, […] hydrocortisone. The remaining cell lines were cultured in RPMI 1640 supplemented with 10% heat-inactivated FBS, 2 mmol/L glutamine, and PSF.
(§2) Cells were seeded in duplicate at 5,000 to 10,000 cells per well in 24-well plates. […] Control wells without drug were seeded as well. Both the adherent and floating fractions of cells were counted on days 2, 5 and 7 for both treatment and control wells. After trypsinization cells were placed in Isotone solution and counted immediately using a Coulter Z2 particle counter (Beckman Coulter Inc, Fullerton, Calif.).
(§3) Growth inhibition was calculated [(1-experimental value/control value)×100] for each day adding both the values obtained for the floating cells and the adherent cells. Pearson-Chi-square analysis was performed to identify a correlation between subtype and sensitivity to dasatinib. Dasatinib was a gift from Frank Lee at Bristol-Meyers-Squibb.

[3] = tested on: BT-474; conditions: Luminal, ER Positive, HER-2 Amplified, inhibition at 1 μM
Excerpt: as §1, §2, §3

[4] = tested on: CAL-51; conditions: Post-EMT, ER Negative, HER-2 Normal, inhibition at 1 μM
Excerpt: as §1, §2, §3

[5] = tested on: CAMA-1; conditions: Luminal, ER Positive, HER-2 Normal, inhibition at 1 μM
Excerpt: as §1, §2, §3

[6] = tested on: EFM-192A; conditions: Luminal, ER Positive, HER-2 Amplified, inhibition at 1 μM
Excerpt: as §1, §2, §3

[7] = tested on: EFM-19; conditions: Luminal, ER Positive, HER-2 Normal, inhibition at 1 μM
Excerpt: as §1, §2, §3

[8] = tested on: HCC 38; conditions: Basal, ER Negative, HER-2 Normal, inhibition at 1 μM
Excerpt: as §1, §2, §3

[9] = tested on: HCC-1143; conditions: Basal, ER Negative, HER-2 Normal, inhibition at 1 μM
Excerpt: as §1, §2, §3

[10] = tested on: HCC-1187; conditions: Basal, ER Negative, HER-2 Normal, inhibition at 1 μM
Excerpt: as §1, §2, §3

[11] = tested on: HCC-1419; conditions: Luminal, ER Positive, HER-2 Amplified, inhibition at 1 μM
Excerpt: as §1, §2, §3

[12] = tested on: HCC-1500; conditions: Luminal, ER Positive, HER-2 Normal, inhibition at 1 μM
Excerpt: as §1, §2, §3

[13] = tested on: HCC-1569; conditions: Post-EMT, ER Negative, HER-2 Amplified, inhibition at 1 μM
Excerpt: as §1, §2, §3

[14] = tested on: HCC-1806; conditions: Basal, ER Negative, HER-2 Normal, inhibition at 1 μM
Excerpt: as §1, §2, §3

[15] = tested on: HCC-1937; conditions: Basal, ER Negative, HER-2 Normal, inhibition at 1 μM
Excerpt: as §1, §2, §3

[16] = tested on: HCC-1954; conditions: Basal, ER Negative, HER-2 Amplified, inhibition at 1 μM
Excerpt: as §1, §2, §3

[17] = tested on: HCC-202; conditions: Luminal, ER Positive, HER-2 Amplified, inhibition at 1 μM
Excerpt: as §1, §2, §3

[18] = tested on: HCC-70; conditions: Basal, ER Negative, HER-2 Normal, inhibition at 1 μM
Excerpt: as §1, §2, §3

[19] = tested on: Hs578t; conditions: Post-EMT, ER Negative, HER-2 Normal, inhibition at 1 μM
Excerpt: as §1, §2, §3

[20] = tested on: MCF-7; conditions: Luminal, ER Positive, HER-2 Normal, inhibition at 1 μM
Excerpt: as §1, §2, §3

[21] = tested on: MDA-MB-134; conditions: Luminal, ER Positive, HER-2 Normal, inhibition at 1 μM
Excerpt: as §1, §2, §3

[22] = tested on: MDA-MB-157; conditions: Post-EMT, ER Negative, HER-2 Normal, inhibition at 1 μM
Excerpt: as §1, §2, §3

[23] = tested on: MDA-MB-175; conditions: Luminal, ER Positive, HER-2 Normal, inhibition at 1 μM
Excerpt: as §1, §2, §3

[24] = tested on: MDA-MB-231; conditions: Post-EMT, ER Negative, HER-2 Normal, inhibition at 1 μM
Excerpt: as §1, §2, §3

[25] = tested on: MDA-MB-361; conditions: Luminal, ER Positive, HER-2 Amplified, inhibition at 1 μM
Excerpt: as §1, §2, §3

[26] = tested on: MDA-MB-415; conditions: Luminal, ER Positive, HER-2 Normal, inhibition at 1 μM
Excerpt: as §1, §2, §3

[27] = tested on: MDA-MB-435; conditions: Post-EMT, ER Negative, HER-2 Normal, inhibition at 1 μM
Excerpt: as §1, §2, §3

[28] = tested on: MDA-MB-436; conditions: Post-EMT, ER Negative, HER-2 Normal, inhibition at 1 μM
Excerpt: as §1, §2, §3

[29] = tested on: MDA-MB-453; conditions: Luminal, ER Negative, HER-2 Amplified, inhibition at 1 μM
Excerpt: as §1, §2, §3

[30] = tested on: MDA-MB-468; conditions: Basal, ER Negative, HER-2 Normal, inhibition at 1 μM
Excerpt: as §1, §2, §3

[31] = tested on: SK-BR-3; conditions: Luminal, ER Negative, HER-2 Amplified, inhibition at 1 μM
Excerpt: as §1, §2, §3

[32] = tested on: SUM-190; conditions: Luminal, ER Negative, HER-2 Amplified, inhibition at 1 μM
Excerpt: as §1, §2, §3

[33] = tested on: SUM-225; conditions: Luminal, ER Negative, HER-2 Amplified, inhibition at 1 μM
Excerpt: as §1, §2, §3

[34] = tested on: T-47D; conditions: Luminal, ER Positive, HER-2 Normal, inhibition at 1 μM
Excerpt: as §1, §2, §3

[35] = tested on: UACC-732; conditions: Luminal, ER Positive, HER-2 Amplified, inhibition at 1 μM
Excerpt: as §1, §2, §3

[36] = tested on: UACC-812; conditions: Luminal, ER Positive, HER-2 Amplified, inhibition at 1 μM
Excerpt: as §1, §2, §3

[37] = tested on: UACC-893; conditions: Luminal, ER Negative, HER-2 Amplified, inhibition at 1 μM
Excerpt: as §1, §2, §3

[38] = tested on: ZR-75-1; conditions: Luminal, ER Positive, HER-2 Normal, inhibition at 1 μM
Excerpt: as §1, §2, §3

[39] = tested on: ZR-75-30; conditions: Luminal, ER Positive, HER-2 Amplified, inhibition at 1 μM
Excerpt: as §1, §2, §3

## Cc1nc(Nc2ncc(C(=O)Nc3c(C)cccc3Cl)s2)cc(N2CCN(CCO)CC2)n1 [Dasatinib, N-(2-chloro-6-methylphenyl)-2-[[6-[4-(2-hydroxyethyl)-1-piperazinyl]-2-methyl-4-pyrimidinyl]amino]-5-thiazolecarboxamide]
[1]
  Response to Dasatinib in vitro: Resistant (<40% inhibition at 1 μM assigned to the resistant group)
[2]
  Response to Dasatinib in vitro: Resistant (<40% inhibition at 1 μM assigned to the resistant group)
[3]
  Response to Dasatinib in vitro: Moderately Sensitive (40-59% inhibition being assigned to the moderately sensitive group)
[4]
  Response to Dasatinib in vitro: Highly Sensitive (greater than 60% inhibition being assigned to the highly sensitive group)
[5]
  Response to Dasatinib in vitro: Resistant (<40% inhibition at 1 μM assigned to the resistant group)
[6]
  Response to Dasatinib in vitro: Resistant (<40% inhibition at 1 μM assigned to the resistant group)
[7]
  Response to Dasatinib in vitro: Moderately Sensitive (40-59% inhibition being assigned to the moderately sensitive group)
[8]
  Response to Dasatinib in vitro: Resistant (<40% inhibition at 1 μM assigned to the resistant group)
[9]
  Response to Dasatinib in vitro: Moderately Sensitive (40-59% inhibition being assigned to the moderately sensitive group)
[10]
  Response to Dasatinib in vitro: Moderately Sensitive (40-59% inhibition being assigned to the moderately sensitive group)
[11]
  Response to Dasatinib in vitro: Moderately Sensitive (40-59% inhibition being assigned to the moderately sensitive group)
[12]
  Response to Dasatinib in vitro: Resistant (<40% inhibition at 1 μM assigned to the resistant group)
[13]
  Response to Dasatinib in vitro: Resistant (<40% inhibition at 1 μM assigned to the resistant group)
[14]
  Response to Dasatinib in vitro: Highly Sensitive (greater than 60% inhibition being assigned to the highly sensitive group)
[15]
  Response to Dasatinib in vitro: Moderately Sensitive (40-59% inhibition being assigned to the moderately sensitive group)
[16]
  Response to Dasatinib in vitro: Moderately Sensitive (40-59% inhibition being assigned to the moderately sensitive group)
[17]
  Response to Dasatinib in vitro: Resistant (<40% inhibition at 1 μM assigned to the resistant group)
[18]
  Response to Dasatinib in vitro: Highly Sensitive (greater than 60% inhibition being assigned to the highly sensitive group)
[19]
  Response to Dasatinib in vitro: Highly Sensitive (greater than 60% inhibition being assigned to the highly sensitive group)
[20]
  Response to Dasatinib in vitro: Moderately Sensitive (40-59% inhibition being assigned to the moderately sensitive group)
[21]
  Response to Dasatinib in vitro: Resistant (<40% inhibition at 1 μM assigned to the resistant group)
[22]
  Response to Dasatinib in vitro: Highly Sensitive (greater than 60% inhibition being assigned to the highly sensitive group)
[23]
  Response to Dasatinib in vitro: Resistant (<40% inhibition at 1 μM assigned to the resistant group)
[24]
  Response to Dasatinib in vitro: Highly Sensitive (greater than 60% inhibition being assigned to the highly sensitive group)
[24]; listed as dasatinib
  Response to Dasatinib in vitro: highly sensitive
[25]
  Response to Dasatinib in vitro: Moderately Sensitive (40-59% inhibition being assigned to the moderately sensitive group)
[26]
  Response to Dasatinib in vitro: Resistant (<40% inhibition at 1 μM assigned to the resistant group)
[27]
  Response to Dasatinib in vitro: Highly Sensitive (greater than 60% inhibition being assigned to the highly sensitive group)
[27]; listed as dasatinib
  Response to Dasatinib in vitro: highly sensitive
[28]
  Response to Dasatinib in vitro: Highly Sensitive (greater than 60% inhibition being assigned to the highly sensitive group)
[29]
  Response to Dasatinib in vitro: Resistant (<40% inhibition at 1 μM assigned to the resistant group)
[30]
  Response to Dasatinib in vitro: Resistant (<40% inhibition at 1 μM assigned to the resistant group)
[30]; listed as dasatinib
  Response to Dasatinib in vitro: resistant
[31]
  Response to Dasatinib in vitro: Resistant (<40% inhibition at 1 μM assigned to the resistant group)
[32]
  Response to Dasatinib in vitro: Resistant (<40% inhibition at 1 μM assigned to the resistant group)
[33]
  Response to Dasatinib in vitro: Resistant (<40% inhibition at 1 μM assigned to the resistant group)
[34]
  Response to Dasatinib in vitro: Moderately Sensitive (40-59% inhibition being assigned to the moderately sensitive group)
[35]
  Response to Dasatinib in vitro: Resistant (<40% inhibition at 1 μM assigned to the resistant group)
[36]
  Response to Dasatinib in vitro: Resistant (<40% inhibition at 1 μM assigned to the resistant group)
[37]
  Response to Dasatinib in vitro: Resistant (<40% inhibition at 1 μM assigned to the resistant group)
[38]
  Response to Dasatinib in vitro: Resistant (<40% inhibition at 1 μM assigned to the resistant group)
[39]
  Response to Dasatinib in vitro: Resistant (<40% inhibition at 1 μM assigned to the resistant group)

— patent publication US8007995B2 (Bristol-Myers Squibb Company, priority 2005, dated 2011)
